Assay [1] deals with T1, Brd4 bromodomain 1 (BRD4(1)) (Homo sapiens, UniProt O60885).
T1 construct: made in house; host or cells: E. coli BL21(DE3)
The assay can be described thus: Inhibition of tetra-acetylated histone H4 binding to Brd4 bromodomain 1 (TR-FRET). The conditions noted are these: tetra-acetylated histone H4 peptide, first bromodomain of Brd4. The method in brief:
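His-tagged BRD4(1) from E. coli (200 nM) with biotinylated tetra-acetylated H4 peptide (25-50 nM), Eu-cryptate streptavidin and XL665 anti-His, in HEPES pH 7.4/phosphate/KF buffer, 0.2% DMSO. After 2 h at room temperature, TR-FRET 665/620 nm ratio read; IC50 from dose-response curves.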
A general note: Time-resolved FRET reads energy transfer from a long-lived donor to a nearby acceptor.

The test system of assay [2] is hIL-6 mRNA. The experiment in a line: Inhibition of hIL-6 mRNA transcription in LPS-stimulated U937 cells. The format is cell-based. Particulars: Homo sapiens, U-937; PMA-differentiated U937 cells, 1 h pretreatment, 1 ug/mL LPS stimulation, 3 h; read-out: IL-6 activity (Inhibition of hIL-6 mRNA Transcription). In a few lines: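 U937 cells differentiated 3 days with 60 ng/mL PMA, pretreated 1 h with compound (0.1% DMSO), then stimulated with 1 ug/mL E. coli LPS for 3 h at 37 °C. hIL-6 mRNA measured by one-step TaqMan RT-qPCR, normalized to cyclophilin. Fold expression relative to control; triplicate wells.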

Assay [3] has as its system human AML MV-4-11 cells. The assay can be described thus: Inhibition of cell proliferation in MV4-11 cells (CellTiter Aqueous One). Particulars: for IC50: MV4-11, 72 h; for Cell Proliferation activity: 72 h. The format is cell-based. The method in brief: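 Exponentially growing MV-4-11 cells (5×10^4/well) were treated immediately with two-fold dilutions of compound from 30 μM to 0.2 μM, in triplicate, for 72 h at 37° C, 5% CO2. Viability was measured by MTS absorbance at 490 nm after 3–4 h. Proliferation relative to DMSO after blank correction gave IC50.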

Assay [4] deals with c-myc. The assay can be described thus: Inhibition of c-myc expression (mRNA, real-time PCR) in MV4-11 cells. Particulars: Human AML MV4-11 cells, 3 h, cMYC mRNA. Format: cell-based. In a few lines: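 MV4-11 cells treated 3 h at 37° C with increasing compound concentrations or 0.1% DMSO, in triplicate. cMYC mRNA quantified by one-step TaqMan real-time PCR, Ct normalized to internal control (Cyclophilin primers used), fold expression relative to control.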
On the technique in general: In qPCR the cycle at which signal appears reflects the starting amount.

As for `Cc1noc(C)c1-c1cnc2c(Cl)cn(Cc3ccccc3)c2c1` [compound 89, 4-(1-benzyl-3-chloro-1H-pyrrolo[3,2-b]pyridin-6-yl)-3,5-dimethylisoxazole], the IC50 was no more than 300 nM in assay [1], 300 to 3000 nM in assay [2], 300 to 3000 nM in assay [3] and 300 to 3000 nM in assay [4].
As for `Cc1noc(C)c1-c1cc(N)c2nc(N3CCOCC3)n(Cc3ccccc3)c2c1` [compound 87, 1-benzyl-6-(3,5-dimethylisoxazol-4-yl)-2-morpholino-1H-benzo[d]imidazol-4-amine], the IC50 in assay [1], in assay [2], in assay [3] and in assay [4] was no more than 300 nM in each case.
As for `Cc1noc(C)c1-c1cc2c(c(C)nn2Cc2ccc(F)cc2)[n+]([O-])c1` [Example Compound 24, 6-(3,5-dimethylisoxazol-4-yl)-1-(4-fluorobenzyl)-3-methyl-1H-pyrazolo[4,3-b]pyridine-4-oxide], the IC50 is no more than 300 nM in assay [1], 300 to 3000 nM in assay [2] and 3000 to 30000 nM in assay [4]. The “Cell Proliferation activity” value in assay [3] is on record as “Not active”.
Consider `Cc1noc(C)c1-c1cc([N+](=O)[O-])c2nc(C)n(CC3CCC3)c2c1` [compound 116, 4-(1-(cyclobutylmethyl)-2-methyl-4-nitro-1H-benzo[d]imidazol-6-yl)-3,5-dimethylisoxazole], for which the IC50 in assay [1] is no more than 300 nM; in assay [2], 300 to 3000 nM; in assay [3] it was no more than 300 nM; in assay [4] it was no more than 300 nM.
On to `Cc1noc(C)c1-c1cc(N)c2oc(=O)n(Cc3ccccc3)c2c1` [compound 67, 7-amino-3-benzyl-5-(3,5-dimethylisoxazol-4-yl)benzo[d]oxazol-2(3H)-one], for which the IC50 in assay [1] is no more than 300 nM; in assay [2] it was no more than 300 nM; in assay [3] it was 300 to 3000 nM; in assay [4], no more than 300 nM.
On to `Cc1noc(C)c1-c1cc(N)c2nc(C)n(CC3CCCC3)c2c1` [compound 133, 1-(cyclopentylmethyl)-6-(3,5-dimethylisoxazol-4-yl)-2-methyl-1H-benzo[d]imidazol-4-amine], for which the IC50 in assay [1] was no more than 300 nM; in assay [2], no more than 300 nM; in assay [3], 300 to 3000 nM; in assay [4], no more than 300 nM.
In the case of `Cc1ccc(Cn2c(C)nc3ncc(-c4c(C)noc4C)cc32)s1` [compound 76, 3,5-dimethyl-4-(2-methyl-1-((5-methylthiophen-2-yl)methyl)-1H-imidazo[4,5-b]pyridin-6-yl)isoxazole], the IC50 lay within 300 to 3000 nM in assay [1], 300 to 3000 nM in assay [2], 3000 to 30000 nM in assay [3] and 300 to 3000 nM in assay [4].
With `Cc1noc(C)c1-c1cc(N)c2nc(C)n(CC3CCC3)c2c1` [compound 132, 1-(cyclobutylmethyl)-6-(3,5-dimethylisoxazol-4-yl)-2-methyl-1H-benzo[d]imidazol-4-amine], the IC50 in assay [1] was no more than 300 nM; in assay [2], no more than 300 nM; in assay [3], 300 to 3000 nM; in assay [4] it was 300 to 3000 nM.
`CCS(=O)(=O)Nc1cc(-c2c(C)noc2C)cc2c1nc(C)n2Cc1ccccc1` [Example Compound 65, N-(1-benzyl-6-(3,5-dimethylisoxazol-4-yl)-2-methyl-1H-benzo[d]imidazol-4-yl)ethanesulfonamide]: the IC50 is no more than 300 nM in assay [1], 300 to 3000 nM in assay [2], 300 to 3000 nM in assay [3] and 300 to 3000 nM in assay [4].
For the compound `CNC(=O)c1nc2ncc(-c3c(C)noc3C)cc2n1Cc1ccccc1` [compound 221, 1-benzyl-6-(3,5-dimethylisoxazol-4-yl)-N-methyl-1H-imidazo[4,5-b]pyridine-2-carboxamide], the IC50 in assay [1] was no more than 300 nM; in assay [2] it was 300 to 3000 nM; in assay [3], 300 to 3000 nM; in assay [4] it was 300 to 3000 nM.
For the compound `Cc1noc(C)c1-c1cnc2nc(C)n(Cc3ccncc3)c2c1` [compound 74, 3,5-dimethyl-4-(2-methyl-1-(pyridin-4-ylmethyl)-1H-imidazo[4,5-b]pyridin-6-yl)isoxazole], the IC50 in assay [1] was 300 to 3000 nM; in assay [2] it was 300 to 3000 nM; in assay [3], 3000 to 30000 nM; in assay [4], 3000 to 30000 nM.
In the case of `Cc1noc(C)c1Cn1c(C)nc2ncc(-c3c(C)noc3C)cc21` [Example Compound 60, 4-((6-(3,5-dimethylisoxazol-4-yl)-2-methyl-1H-imidazo[4,5-b]pyridin-1-yl)methyl)-3,5-dimethylisoxazole], the IC50 in assay [1] fell in the range of 300 to 3000 nM; in assay [2], 300 to 3000 nM; in assay [4], 3000 to 30000 nM. Further, in assay [3], the “Cell Proliferation activity” value was “Not active”.
Turning to `Cc1noc(C)c1-c1cc(N)c2cnn(Cc3ccc(Cl)cc3)c2c1` [compound 102, 1-(4-chlorobenzyl)-6-(3,5-dimethylisoxazol-4-yl)-1H-indazol-4-amine], the IC50 in assay [1] is no more than 300 nM; in assay [2] it was no more than 300 nM; in assay [3] it was 300 to 3000 nM; in assay [4], no more than 300 nM.
Turning to `Cc1noc(C)c1-c1cc(N)c2nc(N3CCN(C)CC3)n(Cc3ccccc3)c2c1` [compound 141, 1-benzyl-6-(3,5-dimethylisoxazol-4-yl)-2-(4-methylpiperazin-1-yl)-1H-benzo[d]imidazol-4-amine], the IC50 in assay [1], in assay [2], in assay [3] and in assay [4] was no more than 300 nM each time.
For the compound `Cc1noc(C)c1-c1cnc2nc(N3CCC3)n(CC3CCC3)c2c1` [compound 211, 4-(2-(azetidin-1-yl)-1-(cyclobutylmethyl)-1H-imidazo[4,5-b]pyridin-6-yl)-3,5-dimethylisoxazole], the IC50 was no more than 300 nM in assay [1], no more than 300 nM in assay [2], no more than 300 nM in assay [3] and 300 to 3000 nM in assay [4].
With `Cc1noc(C)c1-c1cc(N)c2nc(C)n([C@@H](C)c3ccccc3)c2c1` [compound 143, (S)-6-(3,5-dimethylisoxazol-4-yl)-2-methyl-1-(1-phenylethyl)-1H-benzo[d]imidazol-4-amine], the IC50 in assay [1], in assay [2], in assay [3] and in assay [4] was no more than 300 nM throughout.
As to `CCNc1nc2ncc(-c3c(C)noc3C)cc2n1C(C)c1ccccc1` (centres unmarked) [compound 113, 6-(3,5-dimethylisoxazol-4-yl)-N-ethyl-1-(1-phenylethyl)-1H-imidazo[4,5-b]pyridin-2-amine], the IC50 in assay [1], in assay [2], in assay [3] and in assay [4] was no more than 300 nM throughout.
Take `Cc1noc(C)c1-c1cc(N)c2ccn(Cc3ccccc3)c2n1` [compound 73, 1-benzyl-6-(3,5-dimethylisoxazol-4-yl)-1H-pyrrolo[2,3-b]pyridin-4-amine]: the IC50 in assay [1] lay within 300 to 3000 nM; in assay [2], 300 to 3000 nM; in assay [3] it was 3000 to 30000 nM; in assay [4], 3000 to 30000 nM.
Consider `Cc1noc(C)c1-c1cnc2c(c1)ncn2Cc1ccccn1` [Example Compound 46, 3,5-dimethyl-4-(3-(pyridin-2-ylmethyl)-3H-imidazo[4,5-b]pyridin-6-yl)isoxazole], for which the IC50 in assay [1] was in the range of 300 to 3000 nM; in assay [2] it was 3000 to 30000 nM; in assay [3], 3000 to 30000 nM; in assay [4] it was 3000 to 30000 nM.
Take `Cc1noc(C)c1-c1cnc2nc(C)n(Cc3ccc(Cl)cc3)c2c1` [compound 83, 4-(1-(4-chlorobenzyl)-2-methyl-1H-imidazo[4,5-b]pyridin-6-yl)-3,5-dimethylisoxazole]: the IC50 in assay [1] is no more than 300 nM; in assay [2] it was 300 to 3000 nM; in assay [3] it was 300 to 3000 nM; in assay [4], 300 to 3000 nM.
Turning to `Cc1noc(C)c1-c1cc(N)c2cnn(Cc3ccccc3)c2c1` [Example Compound 54, 1-benzyl-6-(3,5-dimethylisoxazol-4-yl)-1H-indazol-4-amine], the IC50 in assay [1] is no more than 300 nM; in assay [2] it was 300 to 3000 nM; in assay [3] it was 300 to 3000 nM; in assay [4] it was 300 to 3000 nM.
For `Cc1noc(C)c1-c1cc(N)c2ccn(Cc3ccc(F)cc3)c2n1` [Example Compound 52, 6-(3,5-dimethylisoxazol-4-yl)-1-(4-fluorobenzyl)-1H-pyrrolo[2,3-b]pyridin-4-amine], the IC50 was in the range of 300 to 3000 nM in assay [1], 300 to 3000 nM in assay [2], 300 to 3000 nM in assay [3] and 3000 to 30000 nM in assay [4].
As to `Cc1noc(C)c1-c1cnc2c(CN(C)C)cn(Cc3ccccc3)c2c1` [compound 72, 1-(1-benzyl-6-(3,5-dimethylisoxazol-4-yl)-1H-pyrrolo[3,2-b]pyridin-3-yl)-N,N-dimethylmethanamine], the IC50 was in the range of 300 to 3000 nM in assay [1], 3000 to 30000 nM in assay [2], 3000 to 30000 nM in assay [3] and 3000 to 30000 nM in assay [4].

Values taken from patent publication US10363257B2 (ZENITH EPIGENETICS LTD., priority 2013, dated 2019).
